Assay results published in patent US20190284243A1, “BINDING PEPTIDES” (University of Copenhagen, priority 2016, published 2019).
Bridge positions count the residues as written; N and C are the ends. Square brackets hold non-standard residues; d marks the D form. Ends that are not written are not given here. Aha = [N-]=[N+]=NCC[C@H](N)C(=O)O; Pra = C#CC[C@H](N)C(=O)O

Legend:
[1] = molecular target: T1, glycine receptor binding site of gephyrin (peptide binding site) (Homo sapiens, UniProt Q9NQX3); experiment: Affinity of β-bodies to the gephyrin peptide binding site; details: compared with original peptide SEQ ID NO: 41
T1 sequence (Q9NQX3 1-736): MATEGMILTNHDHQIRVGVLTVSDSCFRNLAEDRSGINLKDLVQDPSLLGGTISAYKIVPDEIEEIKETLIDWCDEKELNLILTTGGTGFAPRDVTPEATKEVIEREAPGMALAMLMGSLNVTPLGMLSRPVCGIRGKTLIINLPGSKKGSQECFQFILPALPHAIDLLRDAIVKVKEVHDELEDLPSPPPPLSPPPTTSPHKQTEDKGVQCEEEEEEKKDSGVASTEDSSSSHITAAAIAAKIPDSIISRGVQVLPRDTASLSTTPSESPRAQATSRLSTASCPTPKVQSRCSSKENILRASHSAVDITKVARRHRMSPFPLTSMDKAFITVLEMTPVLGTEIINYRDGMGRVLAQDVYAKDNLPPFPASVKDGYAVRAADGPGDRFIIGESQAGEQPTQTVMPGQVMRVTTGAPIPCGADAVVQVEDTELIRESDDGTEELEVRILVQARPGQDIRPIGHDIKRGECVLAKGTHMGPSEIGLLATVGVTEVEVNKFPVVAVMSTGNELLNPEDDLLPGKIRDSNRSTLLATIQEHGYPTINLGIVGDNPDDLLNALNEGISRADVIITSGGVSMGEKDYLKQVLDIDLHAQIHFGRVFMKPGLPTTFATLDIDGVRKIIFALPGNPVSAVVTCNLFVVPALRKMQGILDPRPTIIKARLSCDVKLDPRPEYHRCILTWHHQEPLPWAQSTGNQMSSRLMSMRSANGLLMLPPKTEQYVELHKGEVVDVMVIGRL
Method: The following β-body TTVTGTLYPGTLLGFETT (SEQ ID NO: 41) underwent optimization via alanine scanning. The resulting 9 β-bodies were tested for their affinity to the glycine receptor binding site of gephyrin (peptide binding site). The affinity of the original peptide could be improved and optimized β-bodies were found having the following sequences CTVTGTLYPGTLLGFETC (SEQ ID NO: 42) and TTVTGTLYPGTLLGAATT (SEQ ID NO: 43).

Gephyrin = molecular target: T2, Gephyrin (Homo sapiens, UniProt Q9NQX3); experiment: Binding of β-bodies with the target compound (Table 1), Gephyrin; details: Purpose Gephyrin; tested for binding with the target compound
T2 sequence (Q9NQX3 1-736): T1 sequence (Q9NQX3 1-736)

POI = experiment: Screening of OBOC β-body library with AMC-labelled POI; assay type: binding; details: POI 10 nM, 2 h incubation; site of interaction not determined
Method: The library of K(TX)4PG(XT)4EG was synthesized on HMBA-PEGA1900 resin by the split—mix method essentially as described in Christensen et al, 2003 and was deprotected with 95% TFA. The POI was dissolved in phosphate buffer at pH 7.5, labeled with aminomethylcoumarin using AMC-(CH2)3—CO—OSu (4 eqv, 30 min) and purified by FPLC. […] The protein was dissolved at 100 nM concentration and the library was incubated for 2 h with this solution at 10 fold dilution (10 nM). The library was inspected under a ICX73 fluorescence microscope using a […]. Beads with strong AMC-fluorescence were collected in separate Eppendorph tubes using a microsyringe. The beads were washed and 5% triethylamine in water was added. After incubation overnight the supernatant was transferred to another eppendorph tube and the bead was washed with 70% acetonitril/water. The combined solutions were concentrated to dryness twice using a speedvacc and the residue dissolved in 50% acetonitrile/water. […] The site of interaction on the POI was not determined.

Interleukin 1 = experiment: Sandwich binding assay on PEGA beads, IL1 model
Description: (§1) For sandwich assays β-bodies identified as described in Examples 1 and 2 were synthesized by standard Fmoc-based solid phase peptide synthesis on biocompatible PEGA-beads (e.g. PEGA1900 which has a porosity allowing penetration of proteins up to 70 kDa). PEGA beads are available from Sigma Aldrich.
The intensity of the fluorescence is a measure of the concentration of IL1 and the affinity of the interaction.

Il1 [2] = experiment: Binding of β-bodies with the target compound (Table 1), Il1; details: Purpose Il1; tested for binding with the target compound
Beads modified with (2) = experiment: Fluorescent β-bodies incubated with beads modified with (2); assay type: binding; details: for Kd: bead-(2) with fluorescent β-body; for Binding of fluorescent β-body to beads modified with (2): FIG. 8
Method: (§2) A fluorescent probe was attached to (1), (2) AND (3). The fluorescent β-bodies were then incubated with: • Beads modified with NHAc; or • Beads modified with (1); or • Beads modified with (2).

Beads modified with (1) = experiment: Fluorescent β-bodies incubated with beads modified with (1); assay type: binding; details: FIG. 8
Method: as §2

interleukin 6 = interleukin 6 (Homo sapiens, UniProt P05231); experiment: Sandwich binding assay on PEGA beads, IL6 model
Method: as §1
The sandwich binding assay was performed as follows: two beads with ligand E prepared as described above were contained in separate wells and were added to 50 μL MilliQ water in a microtiter well containing 100 nM of the peptide F. […]
The beads were washed twice with PBS to improve signal to noise. The well was imaged with an ICX73 fluorescence microscope (Olympus) using a ROX filter cube.

GFP = GFP 60 nM, both bead types incubated at the same time
Method: GFP (60 nM) was incubated with different β-body beads at the same time, a first type of β-body beads specific for GFP (β-body SEQ ID NO: 1;
[…]) and a second type of β-body beads specific for IL1 (β-body SEQ ID NO: 5).

Il1 [3] = experiment: Selectivity assay GFP vs. IL1: beads incubated with ROX-IL1; assay type: binding; details: ROX-IL1 100 nM, both bead types incubated at the same time
Description: The same experiment was repeated with IL1.

[4] = ligand 1 beads + 100 nM ligand 2, Interleukin 1 50 nM, 20 min
[5] = ligand 1 beads + 100 nM ligand 2, without IL1 (interaction between the two β-bodies)

interleukin 6, sequence (P05231 30-212, species assumed): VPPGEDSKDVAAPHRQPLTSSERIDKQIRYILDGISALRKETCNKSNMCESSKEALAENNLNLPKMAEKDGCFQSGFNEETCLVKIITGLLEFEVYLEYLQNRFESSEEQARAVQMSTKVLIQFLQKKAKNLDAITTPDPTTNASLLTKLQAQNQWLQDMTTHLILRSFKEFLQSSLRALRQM

Substance: CTVTGTLYPGTLLGFETC (Designed peptide) [SEQ ID NO: 42]
- affinity to the glycine receptor binding site of gephyrin [1]: improved

Substance: TTVTGTLYPGTLLGAATT (Designed peptide) [SEQ ID NO: 43]
- affinity to the glycine receptor binding site of gephyrin [1]: improved

Substance: PraTWTLTHTPGTMEITET-Abu(N3)-OH ([Pra]TWTLTHTPGTMEITET[Aha]-OH; triazole 1-18 (inferred)) [SEQ ID NO: 39]
- Binding (Gephyrin): Medium

Substance: KTYTYNYTGPGRTSTATLTEG (Designed peptide) [SEQ ID NO: 56]
- Binding of library beads to AMC-labelled POI (AMC-fluorescence) (POI): strong binding

Substance: TITKTARYTMPGKTLTKTGTLTG (Designed peptide) [SEQ ID NO: 45]
- Binding (Gephyrin): Medium

Substance: TKTDRVTEPGRTMTFTGT (Designed peptide) [SEQ ID NO: 7]
- ROX fluorescence accumulation in the beads (Interleukin 1; [4]): positive signal
- ROX fluorescence accumulation in the beads (Interleukin 1; ligand 1 beads + 100 nM ligand 2, Interleukin 1 50 nM, 20 min, listed as B): accumulation of significant ROX fluorescence
- ROX fluorescence accumulation in the beads (Interleukin 1; [5]): no signal
- ROX fluorescence accumulation in the beads (Interleukin 1; ligand 1 beads + 100 nM ligand 2, without IL1 (interaction between the two β-bodies), listed as B): No fluorescence accumulation over background

Substance: TWTETYTWTEPGDTQTLTITNT (Designed peptide) [SEQ ID NO: 11]
- Binding (Il1 [2]): High

Substance: KTQTYNGTGPGRTGTVTYTEG (Designed peptide) [SEQ ID NO: 55]
- Binding of library beads to AMC-labelled POI (AMC-fluorescence) (POI): strong binding

Substance: Pra-YTYTDTTPGVTRTLTWG-Abu(N3)-OH ([Pra]YTYTDTTPGVTRTLTWG[Aha]-OH; triazole 1-19 (inferred)) [SEQ ID NO: 38]
- Binding (Gephyrin): Medium

Substance: TFTFTFPGLTRTHT [SEQ ID NO: 59]
- Kd (Beads modified with (2)): 5000 nM

Substance: TTYTYPGDTFTI (Designed peptide) [SEQ ID NO: 58]
- Binding of fluorescent β-body to beads modified with (2) (Beads modified with (2)): high affinity
- Binding of fluorescent β-body to beads modified with (1) (Beads modified with (1)): best bind

Substance: KTGTQNLTGPGRTHTQTATEG (Designed peptide; PEPTIDE (1)..(21) GFP) [SEQ ID NO: 3]
- Binding of library beads to AMC-labelled POI (AMC-fluorescence) (POI): strong binding

Substance: HTWTDTLTRPGYTVTHTLTL (Designed peptide) [SEQ ID NO: 17]
- ROX fluorescence accumulation in the bead (interleukin 6; ligand 5 bead + 100 nM ligand 6, interleukin 6 20 nM, 20 min, listed as E): accumulation of significant ROX fluorescence
- ROX fluorescence accumulation in the bead (interleukin 6; ligand 5 bead + 100 nM ligand 6, interleukin 6 20 nM, 20 min, listed as ligand 5): positive signal
- ROX fluorescence accumulation in the bead (interleukin 6; ligand 5 bead + 100 nM ligand 6, without IL6 (interaction between the two β-bodies), listed as E): No fluorescence accumulation over background
- ROX fluorescence accumulation in the bead (interleukin 6; ligand 5 bead + 100 nM ligand 6, without IL6 (interaction between the two β-bodies), listed as ligand 5): no signal

Substance: Pra-TVTGTLYPGTLLGFET-Abu(N3) ([Pra]TVTGTLYPGTLLGFET[Aha]; triazole 1-18 (inferred)) [SEQ ID NO: 34]
- affinity to the glycine receptor binding site of gephyrin [1]: unchanged

Substance: Abu(N3)-TVTGTLYPGTLLGFET-Pra ([Aha]TVTGTLYPGTLLGFET[Pra]; triazole 1-18 (inferred)) [SEQ ID NO: 44]
- affinity to the glycine receptor binding site of gephyrin [1]: unchanged

Substance: TYTYTYPGLTRTHT [SEQ ID NO: 57]
- Binding of fluorescent β-body to beads modified with (2) (Beads modified with (2)): best bind
- Kd (Beads modified with (2)): 700 nM
- Binding of fluorescent β-body to beads modified with (1) (Beads modified with (1)): high affinity

Substance: Pra-ITKTARYTMPGKTLTKTGTL-Abu(N3)-G ([Pra]ITKTARYTMPGKTLTKTGTL[Aha]G; triazole 1-22 (inferred)) [SEQ ID NO: 46]
- Binding (Gephyrin): Medium

Substance: TMTDTDTYPGFTDTLTHA (Designed peptide) [SEQ ID NO: 16]
- ROX fluorescence accumulation in the bead (interleukin 6; ligand 5 bead + 100 nM ligand 6, interleukin 6 20 nM, 20 min): positive signal
- ROX fluorescence accumulation in the bead (interleukin 6; ligand 5 bead + 100 nM ligand 6, interleukin 6 20 nM, 20 min, listed as F): accumulation of significant ROX fluorescence
- ROX fluorescence accumulation in the bead (interleukin 6; ligand 5 bead + 100 nM ligand 6, without IL6 (interaction between the two β-bodies)): no signal
- ROX fluorescence accumulation in the bead (interleukin 6; ligand 5 bead + 100 nM ligand 6, without IL6 (interaction between the two β-bodies), listed as F): No fluorescence accumulation over background

Substance: ETDTYTETYPGYTSTWTITD (Designed peptide) [SEQ ID NO: 5]
- ROX fluorescence accumulation in the beads (Interleukin 1; [4]): positive signal
- ROX fluorescence accumulation in the beads (Interleukin 1; ligand 1 beads + 100 nM ligand 2, Interleukin 1 50 nM, 20 min, listed as A): accumulation of significant ROX fluorescence
- ROX fluorescence accumulation in the beads (Interleukin 1; [5]): no signal
- ROX fluorescence accumulation in the beads (Interleukin 1; ligand 1 beads + 100 nM ligand 2, without IL1 (interaction between the two β-bodies), listed as A): No fluorescence accumulation over background
- Binding of β-body beads to GFP (GFP): only β-body beads specific for GFP underwent binding
- Binding of β-body beads to IL1 (Il1 [3]): underwent binding

Substance: EPraDTYTETYPGRTITWTIAbu(N3)DG (E[Pra]DTYTETYPGRTITWTI[Aha]DG; triazole 2-19 (inferred)) [SEQ ID NO: 9]
- Binding (Il1 [2]): High
